Key:
MEG-01 cells [1] = experiment: Apoptosis assay by flow cytometry with AnnexinV-FITC and PI; assay type: cell-based, human; details: for early apoptotic cells (FL1H+, FL3H−) versus control untreated (DMSO): 72 hours; for early apoptotic cells (FL1H+, FL3H−) versus control untreated (DMSO) / total apoptotic cells (late plus early) versus control untreated (DMSO): p<0.01; for cytotoxicity: MEG-01 cells
Description: For induction of typical apoptosis, cells were cultured with 1 μM Staurosporine (Sigma-Aldrich, cat. # S6942) for 6 hours as recommended in the protocol from the provider. Next the Staurosporine treated cells were stained as follows: (1) with PI, (2) with AnnexinV-FITC and (3) both PI and AnnexinV-FITC in order to have the brightest controls for compensation and proper collection of the flow cytometry data. Cell necrosis was induced by heat shock (65° C. for 30 minutes). Controls for necrosis were stained in the same way as for the Staurosporine treated cells.
In order to establish the effect of the treatments on the apoptosis levels, the non-treated cells (as well as the mock control DMSO) were considered as a control, stained with PI and AnnexinV-FITC and the unstained cells, grown for the same length of treatment. The unstained control signal was subtracted by gating from the stained control and the rest of stained samples, to get only the positive stained cells signal. The stained control, both PI and AnnexinV-FITC labeled, was then used as the reference in establishing the level of apoptosis induced by the treatments.
Samples contained three cell populations of different size and shape and data was collected on logarithmic modes. AnnexinV-FITC corresponds to FL1H channel, and PI to FL3H or FL2H channels. When needed, compensation was done to remove any spillover between the channels. In addition, proper gating was done to characterize each cell population. The population of cells high on FSC and SSC, identified as large, non-granulated particles corresponds to MEG-01 cells. This population is involved in the proplatelets formation and terminal phase of megakaryocytopoiesis and in thrombocytopoiesis. MEG-01 gate is the one of interest in estimating the apoptosis level induced by the treatments.
The Apoptosis AnnexinV-FITC and PI kit from BD Biosciences, CA, USA was used. 105-106 cells were stained with 50 μg/ml propidium iodide (PI) and with 0.5 μg/ml FITC-labeled Annexin V using the staining protocol provided by the supplier. Briefly, cells were counted using a Neubauer hemacytometer, then washed and resuspended in the appropriate amount of AnnexinV-binding buffer 1× (provided in the kit), in order to have the most […] in 100 μl. Then it was used further, as the total reaction volume 100 μl (containing 10^6 cells) to which PI and AnnexinV-FITC was added. Incubation was done for 15 minutes in dark at room temperature. Samples were then analyzed immediately by flow cytometry.
With reference to FIGS. 5-9, apoptosis flow cytometry (AnnexinV-FITC corresponding to FL1H and PI corresponding to FL3H) is depicted. Analyzed and graphed values correspond to frequencies of the parent obtained with FlowJo software version 6.2, after quadrant gating. […] In FIG. 5, apoptotic cells, percentages (FL1H+, FL3H−), after 24 hours of treatment with CK2α inhibitors are depicted. Left bar represents Control untreated (DMSO), middle bar represents DMAT 20 μM treatment and right bar represents TBB 50 μM treatment. The MEG-01 cells were treated for a period of 24 hours. […] Left column represents the Control untreated (DMSO), middle bar represents DMAT 20 μM treatment and right bar represents TBB 50 μM treatment. The MEG-01 cells were treated for a period of 72 hours. […] Left bar represents the Control untreated (DMSO), middle bar represents DMAT 20 μM treatment and right bar represents TBB 50 μM treatment. The MEG-01 cells were treated for a period of 96 hours. […] FIG. 8 illustrates control untreated (DMSO) stained for both Annexin V-FITC and PI, after 24 hours.

MEG-01 cells [2] = experiment: Thrombocytopoiesis / proplatelet formation by light, DAPI fluorescence and SEM microscopy; assay type: cell-based, human; details: for thrombocytopoiesis: MEG-01 cells
Description: For observing the cells with light microscopy and to be able to provide a matrix for them to adhere, Fibronectin (FN), was used at 5 μg/cm^2 and incubated at 37° C. for 1 h, as a coat for the culture dish (6 well plates usually), as recommended by the provider (BD Biosciences, Bedford, Mass., USA) (Jiang et al., 2002).
Cell pictures were routinely taken in the laboratory of using an Olympus CK40 microscope, and the NIH Image software. High quality pictures and live imaging were taken at Cleveland Clinic Foundation Imaging Core.
DAPI staining of cultured MEG-01 cells was done with fresh cells, for live imaging.
Different concentrations of inhibitors were used, and both floating as well as fibronectin bound cells were examined. Proplatelets producing cells were observed as early as from the second day (after 24 hours), but in the third and forth days proplatelets formation was enhanced. […] When such a cell was identified, efforts were taken to focus on it and pictures were taken every 10 seconds for one day.
Cell preparation and pictures were done at the Microscopy Core Facility Cleveland Clinic. Cells were grown for 4 days with DMAT 10 μM and then collected by differential centrifugation. Cells were fixed in glutaraldehyde buffer and then further processed at the Core. The clot was prepared with platelets collected from MEG-01 cultures treated with DMAT 10 μM. Human thrombin 0.5 U/ml for 15 minutes was used to activate them. Then the clot was fixed in suspension.
Referring to FIGS. 10-15, DAPI staining of live MEG-01 cells is illustrated. Apoptotic morphology of MEG-01 cells. In FIG. 10, proplatelets formation in suspension, result of DMAT treatment (10 μM) is shown. FIG. 11 depicts proplatelets formation on Fibronectin, result of DMAT treatment (10 μM). […] This image represents the DAPI staining of cells from FIG. 11. […] FIG. 14 also illustrates phase contrast micrograph of live MEG-01 cells untreated in the 3rd to the 4th day (DMSO), 20×. FIG. 15 illustrates phase contrast micrograph of live MEG-01 cells treated with DMAT 10 μM in the 3rd to the 4th day, 20×. To summarize, FIGS. 10-15 show chromatin condensation, blebbing, cytoplasmic and nuclear fragmentation, as well as polyploidy (increase in the size of the nucleus) of MEG-01 cells following DMAT treatment.

MEG-01 cells [3] = experiment: Viability (proliferation) assay, Trypan blue exclusion; details: for proliferation rate / cell number of MEG-01 cells: 4 days of treatment
Description: In order to check the effect of CK2 inhibitors, the treatments length went up to 4, 5 days without splitting.
Cells were counted using a Neubauer hemacytometer. Trypan blue dye was used according to the manufacturer (Sigma-Aldrich, cat. # T8154).
Cell number (as cells/ml) was estimated using the formula [(total count/0.1)/total surface area counted]*(dilution factor), where 0.1 is the chamber depth, considering the appropriate area counted, half dilution for Trypan blue was considered in calculations. Countings were done as quadruplicates every 24 hours.
Quadruplicates values were used for each sample. Experiments were repeated at least 4 times, in order to see if the trend is correct and reproducible.

[4] = 50 μM, fourth and fifth days (TBB p<0.01, DMAT p<0.005)

SMILES | apoptosis versus non-treated control (MEG-01 cells [1]; 50 μM, 24 hours, p<0.05) | early apoptotic cells (FL1H+, FL3H−) versus control untreated (DMSO) (MEG-01 cells [1]; 50 μM) | total apoptotic cells (late plus early) versus control untreated (DMSO) (MEG-01 cells [1]; 50 μM, 96 hours) | cytotoxicity (MEG-01 cells [1]) | thrombocytopoiesis (MEG-01 cells [2]) | proliferation (viability) versus Control untreated (DMSO) (MEG-01 cells [3]; [4]) | proliferation rate / cell number of MEG-01 cells (MEG-01 cells [3]; 100 μM) | proliferation (viability) versus Control untreated (DMSO) (MEG-01 cells [3]; 100 μM, fourth and fifth days, p<0.005) | concentration at which the inhibitor had effect (MEG-01 cells [3]; proliferation arrest and induced apoptosis, TBB concentration required for the same effect as DMAT) [µM] | apoptosis (MEG-01 cells [1]; 10 μM, 24 hours) | apoptosis versus non-treated control (MEG-01 cells [1]; 20 μM, 24 hours) | early apoptotic cells (FL1H+, FL3H−) versus control untreated (DMSO) (MEG-01 cells [1]; 20 μM) | total apoptotic cells (late plus early) versus control untreated (DMSO) (MEG-01 cells [1]; 20 μM, 96 hours) | apoptosis compared with TBB (MEG-01 cells [1]; DMAT 20 μM versus TBB 50 μM, 96 hours) | cell surface phenotype by SEM (MEG-01 cells [2]; 10 μM, 3 to 4 days) | maturation and proplatelet formation (MEG-01 cells [2]; 10 μM, as early as from the second day, in suspension and on fibronectin) | proliferation (viability) versus Control untreated (DMSO) (MEG-01 cells [3]; 25 μM, fourth and fifth days, p<0.01) | proliferation rate / cell number of MEG-01 cells (MEG-01 cells [3]; 50 μM)
Brc1c(Br)c(Br)c2[nH]nnc2c1Br [TBB, 4,5,6,7-tetrabromobenzotriazole] | significant apoptosis | significant apoptosis after 72 hours | significant apoptosis after 96 hours | without being cytotoxic | induced thrombocytopoiesis | very significant statistical differences | maintained a steady number of cells for the 4 days of treatment and induced extremely significant reduction in the proliferation rate | very significant statistical differences | 50 | – | – | – | – | – | – | – | – | –
CN(C)c1nc2c(Br)c(Br)c(Br)c(Br)c2[nH]1 [DMAT, 2-dimethylamino-4,5,6,7-tetrabromo-1H-benzimidazole] | – | – | – | without being cytotoxic | induced thrombocytopoiesis | very significant statistical differences | – | – | – | induced apoptosis | extremely significant apoptosis | significant apoptosis after 72 hours | significant apoptosis after 96 hours | induces more apoptosis at a lower concentration than the less specific inhibitor (TBB) | Pseudopodia and proplatelets formation, as well as blebbing can be observed | induced MEG-01 cells to mature and form proplatelets extensions | very significant statistical differences | maintained a steady number of cells for the 4 days of treatment and induced extremely significant reduction in the proliferation rate

Reference: patent US20100048657A1, “CONTROL OF MALIGNANT CELLS PROLIFERATION THROUGH THE INHIBITION OF CASEIN KINASE 2” (CLEVELAND STATE UNIVERSITY, priority 2006, published 2010)
